From ChEMBL document CHEMBL1201862, “PubChem BioAssay data set” (2004)
Calls of active or inactive are those of the source.

What was measured:
[1] = target: C-C chemokine receptor type 6 (Homo sapiens, UniProt P51684); assay: CCR6 receptor antagonists, dose response, cell-based, luminescent beta-arrestin readout (AID 504728); type: functional
Beta-galactosidase = Beta-galactosidase (Escherichia coli, UniProt Q8VNN2); assay: beta-galactosidase enzyme inhibitors and activators, dose response, artefact control for CCR6 antagonist project, biochemical, E. coli enzyme, set 3 (AID 504712); type: functional
[2] = target: DNA dC->dU-editing enzyme APOBEC-3G (Homo sapiens, UniProt Q9HC16); assay: Dose Response confirmation of small molecule APOBEC3G DNA Deaminase Inhibitors via a fluorescence-based single-stranded DNA deaminase assay. [Related pubchem assays (depositor defined):AID493012, AID493028]; type: functional
[3] = HEp-2 cell cytotoxicity, dose response, cytotoxicity control for RSV inhibitor project, HTS (AID 2410); type: functional; conditions: human respiratory syncytial virus
Cytochrome P450 2D6 = Cytochrome P450 2D6 (Homo sapiens, UniProt P10635); assay: qHTS Assay for Inhibitors and Substrates of Cytochrome P450 2D6. [Related pubchem assays: 410 ]; type: ADME; conditions: read-out: Potency
[4] = M. tuberculosis H37Rv growth inhibitors, H37Rv strain (AID 1626); type: functional
Vero = assay: host cell cytotoxicity of antiviral hits, dose response, cytotoxicity control for West Nile virus antiviral project, secondary assay (AID 1650); type: functional; conditions: Chlorocebus sabaeus
Streptococcus = assay: Group A Streptococcus viability loss, dose response, counter-screen for streptokinase expression inhibitor project, luminescence, BacTiterGlo (AID 1915); type: functional, organism-based;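 also: potency for reduction of bacterial viability or growth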
X-box-binding protein 1 = X-box-binding protein 1 (Homo sapiens, UniProt P17861); type: functional, Cricetulus griseus;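 also: confirmatory dose-response counter-screen serving a CHOP assay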
[5] = test system: Streptococcus sp. 'group A'; assay: growth inhibition of control SK(-) GAS strain, dose response, counter-screen for streptokinase expression inhibitor project, luminescence, kanamycin, BacTiterGlo, confirmation (AID 1900); type: functional, organism-based
Streptokinase A = target: T1, Streptokinase A (Streptococcus pyogenes serotype M1, UniProt P10520); assay: S. pyogenes streptokinase expression inhibitors, potency, dose response, plasminogen activation absorbance, OD405 (AID 1914); type: functional, Streptococcus pyogenes M1 GAS;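 also: secreted streptokinase activity via plasminogen activation per viability signal from cell pellet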
T1 sequence (P10520 whole entry): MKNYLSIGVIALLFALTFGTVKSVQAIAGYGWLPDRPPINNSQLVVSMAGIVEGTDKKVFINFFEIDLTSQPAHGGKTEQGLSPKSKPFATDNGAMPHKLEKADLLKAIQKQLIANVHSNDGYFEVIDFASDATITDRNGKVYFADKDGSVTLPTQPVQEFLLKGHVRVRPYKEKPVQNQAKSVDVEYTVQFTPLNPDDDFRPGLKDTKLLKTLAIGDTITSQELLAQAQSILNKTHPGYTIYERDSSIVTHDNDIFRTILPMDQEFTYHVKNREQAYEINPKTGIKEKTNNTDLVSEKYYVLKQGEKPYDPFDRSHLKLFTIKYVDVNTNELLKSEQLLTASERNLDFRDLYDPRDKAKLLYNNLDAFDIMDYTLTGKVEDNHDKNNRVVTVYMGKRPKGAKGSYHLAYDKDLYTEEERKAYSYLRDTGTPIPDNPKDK

[6] = target: Melanin-concentrating hormone receptor 1 (Homo sapiens, UniProt Q99705); assay: Fluorescence-based counterscreen for antagonists of the G-protein coupled receptor 7 (GPR7): cell-based high throughput dose response assay to identify antagonists of the melanin-concentrating hormone receptor 1 (MCHR1).; type: functional
[7] = target: T2, Corticotropin-releasing factor receptor 2/Corticotropin-releasing factor-binding protein (Homo sapiens, UniProt P24387+Q13324); assay: activators of CRF receptor 2 with binding protein – uHTS hits, confirmation (AID 602473); type: functional; conditions: read-out: EC50_Mean
T2 sequence (Q13324 whole entry): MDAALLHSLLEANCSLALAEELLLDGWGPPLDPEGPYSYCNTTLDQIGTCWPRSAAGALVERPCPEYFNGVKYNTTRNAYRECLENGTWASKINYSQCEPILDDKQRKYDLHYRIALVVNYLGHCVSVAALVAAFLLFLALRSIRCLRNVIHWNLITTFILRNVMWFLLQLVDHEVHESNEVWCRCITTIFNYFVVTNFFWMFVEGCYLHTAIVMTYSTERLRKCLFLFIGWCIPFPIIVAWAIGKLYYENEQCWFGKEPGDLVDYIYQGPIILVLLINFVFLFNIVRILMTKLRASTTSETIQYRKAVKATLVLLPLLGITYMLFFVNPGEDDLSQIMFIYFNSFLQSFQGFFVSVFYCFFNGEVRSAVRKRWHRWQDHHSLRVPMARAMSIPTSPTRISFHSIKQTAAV
T2 sequence (P24387 whole entry): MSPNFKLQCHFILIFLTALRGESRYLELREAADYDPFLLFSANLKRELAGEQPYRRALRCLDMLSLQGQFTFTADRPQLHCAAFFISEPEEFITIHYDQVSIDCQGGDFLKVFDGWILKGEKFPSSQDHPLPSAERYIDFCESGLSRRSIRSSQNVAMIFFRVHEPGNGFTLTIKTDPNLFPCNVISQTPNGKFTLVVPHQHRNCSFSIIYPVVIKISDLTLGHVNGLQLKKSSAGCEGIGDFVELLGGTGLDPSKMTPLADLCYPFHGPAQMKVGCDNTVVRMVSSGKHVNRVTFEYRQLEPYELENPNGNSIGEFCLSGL

Cytochrome P450 3A4 = Cytochrome P450 3A4 (Homo sapiens, UniProt P08684); conditions: Potency;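 also: confirmatory qHTS run detecting inhibitors and substrates of CYP3A4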
[8] = growth suppression of PTEN-null colon cells, dose response, cell-based, HCT116 PTEN knockout (AID 1047); type: functional;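 also: HCT116 colon tumor cells with PTEN knocked out; cells exposed to compound for 60 hours before readout; potency for loss of cell viability measured by luminescence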
[9] = target: T3, Alkaline phosphatase, tissue-nonspecific isozyme (Homo sapiens, UniProt P05186)
T3 sequence (P05186 whole entry): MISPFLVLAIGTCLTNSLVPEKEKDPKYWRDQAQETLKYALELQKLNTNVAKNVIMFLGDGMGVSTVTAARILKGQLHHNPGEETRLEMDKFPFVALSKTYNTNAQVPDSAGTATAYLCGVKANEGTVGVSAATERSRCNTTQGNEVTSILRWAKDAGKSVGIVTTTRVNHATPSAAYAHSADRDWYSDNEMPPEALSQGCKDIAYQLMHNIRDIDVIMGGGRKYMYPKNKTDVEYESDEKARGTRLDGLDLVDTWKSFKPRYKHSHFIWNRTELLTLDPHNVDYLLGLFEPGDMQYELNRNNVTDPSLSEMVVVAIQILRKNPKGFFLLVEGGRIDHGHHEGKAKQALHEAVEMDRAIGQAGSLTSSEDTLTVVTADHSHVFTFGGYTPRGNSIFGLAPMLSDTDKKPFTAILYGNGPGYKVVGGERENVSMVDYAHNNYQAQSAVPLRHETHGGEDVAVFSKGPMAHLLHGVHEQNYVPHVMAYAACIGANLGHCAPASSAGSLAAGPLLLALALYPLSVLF

[10] = growth suppression of beta-catenin-knockout colon cells, dose response, cell-based, HCT116, human colon tumor (AID 1045); type: functional;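 also: HCT116 colon tumor cells with beta catenin knocked out; cells exposed to compound for 60 hours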
[11] = A Cell Based Secondary Assay To Explore Cytotoxicity of Compounds that Sensitize Mycobacterium Tuberculosis to Beta-Lactam Antibiotics.; type: functional
[12] = Luminescence-based dose response cell-based high throughput screening assay for cytotoxic compounds using the IEC-6 intestinal epithelial cell line. [Related pubchem assays: 1858 (Summary AID.), 1825 (Counterscreen.), 1907 (Confirmation screen.)]; type: functional

Sequence of Cytochrome P450 2D6 (P10635 whole entry): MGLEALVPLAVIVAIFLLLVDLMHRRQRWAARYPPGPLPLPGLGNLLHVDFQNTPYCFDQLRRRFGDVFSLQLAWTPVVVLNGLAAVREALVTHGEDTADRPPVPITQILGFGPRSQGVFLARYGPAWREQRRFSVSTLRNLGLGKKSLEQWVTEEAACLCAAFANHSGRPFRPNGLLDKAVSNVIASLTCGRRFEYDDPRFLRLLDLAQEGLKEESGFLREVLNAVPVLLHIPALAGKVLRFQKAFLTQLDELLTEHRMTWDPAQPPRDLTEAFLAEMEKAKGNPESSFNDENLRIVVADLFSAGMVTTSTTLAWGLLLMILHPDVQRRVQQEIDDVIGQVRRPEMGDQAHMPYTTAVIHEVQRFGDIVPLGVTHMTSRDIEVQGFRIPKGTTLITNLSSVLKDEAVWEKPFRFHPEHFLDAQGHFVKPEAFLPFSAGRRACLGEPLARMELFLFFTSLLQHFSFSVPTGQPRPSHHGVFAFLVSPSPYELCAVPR
Sequence of Cytochrome P450 3A4 (P08684 whole entry): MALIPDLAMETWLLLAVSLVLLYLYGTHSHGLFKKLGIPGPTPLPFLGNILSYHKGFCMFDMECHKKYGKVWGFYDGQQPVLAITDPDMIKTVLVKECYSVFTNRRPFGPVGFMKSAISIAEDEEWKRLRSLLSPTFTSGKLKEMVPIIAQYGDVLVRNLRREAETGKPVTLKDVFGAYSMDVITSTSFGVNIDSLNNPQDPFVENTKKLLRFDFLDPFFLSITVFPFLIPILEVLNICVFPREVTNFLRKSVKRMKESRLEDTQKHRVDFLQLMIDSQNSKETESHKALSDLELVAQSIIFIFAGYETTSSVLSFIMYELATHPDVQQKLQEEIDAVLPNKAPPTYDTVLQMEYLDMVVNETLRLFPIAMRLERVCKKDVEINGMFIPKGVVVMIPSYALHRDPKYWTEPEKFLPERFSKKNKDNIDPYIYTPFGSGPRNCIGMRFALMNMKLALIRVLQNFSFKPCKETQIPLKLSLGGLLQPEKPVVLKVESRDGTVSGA
Sequence of X-box-binding protein 1 (P17861 whole entry): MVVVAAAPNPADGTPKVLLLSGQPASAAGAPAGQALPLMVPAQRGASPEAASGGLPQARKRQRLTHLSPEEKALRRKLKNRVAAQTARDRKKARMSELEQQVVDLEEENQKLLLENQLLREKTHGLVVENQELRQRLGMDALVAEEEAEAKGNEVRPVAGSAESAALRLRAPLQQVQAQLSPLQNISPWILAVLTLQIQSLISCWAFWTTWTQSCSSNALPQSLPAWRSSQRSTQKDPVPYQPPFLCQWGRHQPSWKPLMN
Sequence of C-C chemokine receptor type 6 (P51684 whole entry): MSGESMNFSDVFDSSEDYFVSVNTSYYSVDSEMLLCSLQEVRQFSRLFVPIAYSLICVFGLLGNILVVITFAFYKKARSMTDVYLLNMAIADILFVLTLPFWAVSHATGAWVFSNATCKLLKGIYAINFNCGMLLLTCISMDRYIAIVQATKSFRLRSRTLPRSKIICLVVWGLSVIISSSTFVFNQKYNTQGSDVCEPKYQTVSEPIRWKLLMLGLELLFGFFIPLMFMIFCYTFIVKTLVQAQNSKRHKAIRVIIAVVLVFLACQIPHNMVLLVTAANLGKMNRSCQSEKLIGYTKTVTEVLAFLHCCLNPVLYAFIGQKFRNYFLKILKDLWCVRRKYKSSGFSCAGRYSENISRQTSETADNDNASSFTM
Sequence of Melanin-concentrating hormone receptor 1 (Q99705 whole entry): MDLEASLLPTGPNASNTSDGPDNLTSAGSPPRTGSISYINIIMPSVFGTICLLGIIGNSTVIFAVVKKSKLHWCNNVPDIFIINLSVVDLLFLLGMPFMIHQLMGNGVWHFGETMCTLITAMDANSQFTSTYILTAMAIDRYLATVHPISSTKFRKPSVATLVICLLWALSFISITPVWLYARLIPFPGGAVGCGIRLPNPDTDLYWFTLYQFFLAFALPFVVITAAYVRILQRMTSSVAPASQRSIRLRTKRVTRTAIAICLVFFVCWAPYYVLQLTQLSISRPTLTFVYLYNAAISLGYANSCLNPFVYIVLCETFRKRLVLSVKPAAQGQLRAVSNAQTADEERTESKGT
Sequence of DNA dC->dU-editing enzyme APOBEC-3G (Q9HC16 whole entry): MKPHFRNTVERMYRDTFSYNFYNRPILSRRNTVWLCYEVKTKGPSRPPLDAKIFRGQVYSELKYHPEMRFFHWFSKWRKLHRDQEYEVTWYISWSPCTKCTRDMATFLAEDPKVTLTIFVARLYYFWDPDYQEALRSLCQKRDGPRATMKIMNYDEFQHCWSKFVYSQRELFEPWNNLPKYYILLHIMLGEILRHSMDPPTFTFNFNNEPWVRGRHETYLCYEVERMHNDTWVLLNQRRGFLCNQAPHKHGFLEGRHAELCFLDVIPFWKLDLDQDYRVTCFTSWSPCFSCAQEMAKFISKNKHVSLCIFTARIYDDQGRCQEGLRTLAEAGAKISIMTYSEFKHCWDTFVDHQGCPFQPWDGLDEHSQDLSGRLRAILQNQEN
Sequence of Beta-galactosidase (Q8VNN2 whole entry): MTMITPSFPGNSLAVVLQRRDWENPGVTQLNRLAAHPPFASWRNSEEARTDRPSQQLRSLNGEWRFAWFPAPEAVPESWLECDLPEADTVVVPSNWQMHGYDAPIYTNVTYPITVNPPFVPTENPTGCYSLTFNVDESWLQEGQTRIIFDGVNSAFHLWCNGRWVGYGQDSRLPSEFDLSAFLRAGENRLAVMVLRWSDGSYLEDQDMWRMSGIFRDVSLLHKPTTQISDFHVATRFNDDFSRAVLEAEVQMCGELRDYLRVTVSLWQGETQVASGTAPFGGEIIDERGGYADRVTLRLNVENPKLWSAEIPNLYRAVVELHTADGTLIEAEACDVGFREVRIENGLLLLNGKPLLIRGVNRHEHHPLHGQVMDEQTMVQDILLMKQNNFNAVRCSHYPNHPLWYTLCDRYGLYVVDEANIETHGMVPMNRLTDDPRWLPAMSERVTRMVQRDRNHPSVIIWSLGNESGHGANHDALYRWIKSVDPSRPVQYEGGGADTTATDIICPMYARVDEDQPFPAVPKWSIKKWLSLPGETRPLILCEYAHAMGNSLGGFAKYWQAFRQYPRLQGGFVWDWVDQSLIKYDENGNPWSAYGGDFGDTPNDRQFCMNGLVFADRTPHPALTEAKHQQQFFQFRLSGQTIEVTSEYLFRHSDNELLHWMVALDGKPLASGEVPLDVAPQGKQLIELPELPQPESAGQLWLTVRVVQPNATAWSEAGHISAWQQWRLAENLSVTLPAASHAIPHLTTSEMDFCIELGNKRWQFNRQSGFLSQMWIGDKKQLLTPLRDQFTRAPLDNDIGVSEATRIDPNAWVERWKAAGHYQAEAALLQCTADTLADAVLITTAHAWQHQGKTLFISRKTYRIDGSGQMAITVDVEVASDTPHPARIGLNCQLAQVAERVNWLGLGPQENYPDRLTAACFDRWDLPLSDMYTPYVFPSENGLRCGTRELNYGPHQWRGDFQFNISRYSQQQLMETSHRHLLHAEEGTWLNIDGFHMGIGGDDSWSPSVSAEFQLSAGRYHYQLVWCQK

Cc1ccc(C)c2sc(NC(=O)c3nc4ccccc4s3)nc12
IC50 [1]: 0.869 µM (active)
IC50 (Beta-galactosidase): > 66.6 µM (inactive)

CCN(CC)c1ccc(NC(=O)c2ccccc2)cc1S(=O)(=O)Nc1ccccc1OC
IC50 [2]: 30 µM (active)

Cc1nc2ccccc2nc1Nc1cccc(Cl)c1
IC50 (cells): 11.7 µM (active)
CC50 [3]: 24.1 µM (active)

COc1ccc(NC(=O)/C=C\c2ccc(Cl)cc2)cc1
AC50 (Cytochrome P450 2D6): 25.1 µM (inconclusive)

COc1ccc(NC(C#N)c2ccc(OC)cc2)cc1 (configuration not stated)
IC50 [4]: > 100 µM (active)

Cc1ccc(C(OCC(O)CNC(C)c2ccccc2)c2ccccc2)cc1 (configuration not stated)
CC50 (Vero): 18.9 µM (active)

Cc1ccc(NC(=O)c2ccc(C#CC3(O)CCCCC3)cc2)cc1C
EC50 (Streptococcus): > 150 µM (not active)
Absolute IC50 (XBP1) (X-box-binding protein 1): 10 µM
EC50 [5]: > 150 µM (not active)
EC50 (Streptokinase A): 7.36 µM (inconclusive)

C#CC(CO)N(CCN(Cc1ccccc1)C(C#C)CO)Cc1ccccc1 (configuration not stated)
IC50 [6]: 15 µM (not active)

Clc1ccc(-c2ccc(/C=N/c3ccc(N4CCOCC4)cc3)o2)c(Cl)c1
EC50 [7]: 6.68 µM (active)
IC50 [4]: > 100 µM (active)

O=c1cc(-c2cccc(O)c2O)oc2ccccc12
AC50 (Cytochrome P450 3A4): 20 µM (inconclusive)
AC50 (Cytochrome P450 2D6): 31.6 µM (inconclusive)

Cn1c(=O)c2c(nc(N/N=C/c3cccs3)n2Cc2ccccc2)n(C)c1=O
EC50 [8]: 56.2 µM (active)
EC50 [9]: > 100 µM (not active)
EC50 [10]: 84.2 µM (active)

O=C1N=C(N/N=C/c2ccc3ncccc3c2)SC1Cc1ccc(SC(F)F)cc1 (configuration not stated)
CC50 [11]: > 40 µM (active)

C=C1[C@@H](C)[C@H]2[C@H](Cc3ccccc3)NC(=O)[C@]23OC(=O)/C=C/[C@H](O)CCC[C@@H](C)C/C=C/[C@H]3[C@@H]1O [CYTOCHALASIN B]
IC50 [12]: 0.424 µM (active)
